Measurements from US11672802B2, “Induction of immune tolerance by using methotrexate” (Genzyme Corporation, priority 2011, dated 2023).
Entries after “also recorded” stand apart in the source; their conditions may differ.

What was measured:
[1] = test system: anti-mATG antibody; test: Anti-mATG titers in cardiac allograft transplant mice; format: in vivo; details: seven days following transplant, mice treated with methotrexate and mATG
Experimental: (§1) Polyclonal antibody mATG was administered as an intraperitoneal injection of 5 mg/kg every four weeks or as two 20 mg/kg doses given four days apart when in the transplant setting with the first dose given on the day of transplant (day 0).
(§2) The levels of anti-mATG IgG in mouse serum were analyzed by enzyme linked immunosorbent assay (ELISA). […] End-point titers were defined as the […] dilution that averages above an absorbance of 0.100 using Softmax software (Molecular Devices, Sunnyvale, Calif., USA).
C57BL/6 and BALB/c mice were obtained from Charles River (Kingston, N.Y. or Raleigh, N.C.) and used in these experiments between 8 and 13 weeks of age. The donor allogenic C57BL/6 mice were first anesthetized with an intraperitoneal injection of Ketamine (Fort Dodge Animal Health/Pfizer, Fort Dodge, Iowa) and Xylazine (Lloyd, Shenandoah, Iowa) and a median sternotomy was performed. […] The ascending aorta and pulmonary artery were then transected, the graft removed from the donor and the heart was stored in ice-cold saline until engraftment. A recipient mouse (Balb/c) was similarly anesthetized and prepped as described above for donor mice, except that the abdominal cavity was opened. […] Grafts were assessed by palpation 5-7 times per week for the first 30 day, and then 3-4 times per week until the end of the study.

[2] = test system: anti-alemtuzumab IgG; test: Anti-alemtuzumab IgG ELISA titers in huCD52 Tg mice
From the text: Alemtuzumab-related studies employed human CD52 (huCD52) transgenic (Tg) mice between 6-12 weeks of age that were obtained from Charles River Laboratories/Genzyme Corp. Mice were housed and maintained in accordance with the Guide for Care and Use of Laboratory Animals and under American Association for Accreditation of Laboratory Animals Care I accreditation and all animal protocols used in these studies were approved by the Institutional Animals Care and Use Committee.
Monoclonal antibody alemtuzumab was administered intravenously as either a single injection of 0.5 mg/kg or in either a three or five day cycle of 0.5 mg/kg/day.
Methotrexate (Calbiochem catalog #454125) was administered at 0.5, 1.0, 2.0 or 5 mg/kg by intraperitoneal injection for 1-3 cycles, where each cycle equals either three, six or seven consecutive days of injection depending upon the experiment.
Mice were bled 4-6 days following alemtuzumab treatment and specific anti-alemtuzumab IgG was measured by ELISA. Briefly, 96-well plates (Corning Inc., Corning, N.Y., USA) were coated overnight with 3 μg/ml of alemtuzumab in PBS (pH 7.2). Following blocking with 0.1% BSA in PBS, serial dilutions of serum were added in duplicate to alemtuzumab-coated plates and incubated at 37° C. for 1 h. The plates were washed, and horseradish peroxidase-conjugated goat anti-mouse IgG secondary antibody (Southern Biotechnology Associates, Birmingham, Ala., USA) was added and allowed to incubate for 1 h at 37° C. Following a final wash, TMB substrate (BioFx, Owings Mills, Md., USA) was added and allowed to develop for 15 min at room temperature. The reaction was stopped by the addition of 1 N HCl and absorbance values were read at 450/650 nm on an ELISA plate reader (Molecular Devices, Sunnyvale, Calif., USA). End-point titers were defined as the antilog of the logarithmically transformed sample dilution interpolated at an absorbance value of 0.2 using Excel software (Microsoft, Redmond, Wash., USA).

[3] = test system: allogeneic heart transplant; test: Murine allogeneic heart transplant model, graft survival; format: in vivo, mice (C57BL/6 donor, Balb/c recipient); details: treatment alone
Experimental: as §1
C57BL/6 and BALB/c mice were obtained from Charles River (Kingston, N.Y. or Raleigh, N.C.) and used in these experiments between 8 and 13 weeks of age. The donor allogenic C57BL/6 mice were first anesthetized with an intraperitoneal injection of Ketamine (Fort Dodge Animal Health/Pfizer, Fort Dodge, Iowa) and Xylazine (Lloyd, Shenandoah, Iowa) and a median sternotomy was performed. […] The ascending aorta and pulmonary artery were then transected, the graft removed from the donor and the heart was stored in ice-cold saline until engraftment. A recipient mouse (Balb/c) was similarly anesthetized and prepped as described above for donor mice, except that the abdominal cavity was opened. […] After hemostasis was confirmed, the abdominal muscle was closed with a running 5-O Vicryl suture (Ethicon, Johnson & Johnson, Somerville, N.J.), and the skin closed with running 5-0 Ethilon suture (Ethicon). Standard post-op pain assessment and management was performed. Grafts were assessed by palpation 5-7 times per week for the first 30 day, and then 3-4 times per week until the end of the study.

[4] = test system: cytokines (BAFF, TNF-alpha, MCP-1, IL-13, IL-6, IL-12); test: Serum cytokine levels in alemtuzumab-treated mice; format: in vivo, huCD52 Tg mice
[5] = test system: CD4+ and CD8+ T cells, T regulatory cells, B cells; test: Flow cytometry of lymphocyte populations in mATG-treated mice; format: in vivo, C57BL/6 mice
Experimental: For splenocyte and lymph node cell preparations single-cell suspensions were generated from harvested mouse spleens or inguinal and mesenteric lymph nodes by homogenization between frosted glass slides into PBS containing 2% FCS. For splenocyte preparations, red blood cells were lysed by 1-2 minute incubation with a red blood cell lysis solution (BD Biosciences, San Diego, Calif.). Blood was isolated by retro-orbital bleeding and cell preparations were performed by lysing red blood cells with red blood cell lysing solution (BD Biosciences) for 20-30 minutes. For all tissue preparations, live cells were enumerated using the ViCell automated counter (Beckman Coulter, Fullerton, Calif.). Following isolation, all cell preparations were washed with PBS/2% FCS prior to use in the assays described below.
For evaluation of cell populations within different tissues, single cell suspensions of the tissues were incubated with fluorochrome-conjugated antibodies that included anti-mouse CD4, CD8, CD25, CD44, CD62L (all antibodies from BD Biosciences or eBioscience, San Diego, Calif.). Intracellular Foxp3 expression analysis was performed according to the anti-Foxp3 manufacturer's protocol (eBiosciences, San Diego, Calif.). Following incubation with the antibodies, cells were washed and analyzed by flow cytometry (FACSCanto, BD Biosciences and FCS Express software, De Novo Software, Los Angeles, Calif.).

[6] = test system: anti-allograft antibodies; test: Serum alloantibody levels (binding to allogeneic fibroblasts); format: in vivo, mice; details: day 21, allogeneic heart transplant
Experimental: Serum alloantibody levels were determined by incubating serum from cardiac transplanted or normal mice at 1:50 dilutions with an SV40 transformed C57BL/6 fibroblast line (SVB6) followed by detection of fibrobast bound antibodies (alloantibodies) using FITC rabbit anti-mouse IgG (Dako, Carpinteria, Calif.) and by flow cytometric analysis. Geometric mean fluorescent intensities of serum stained fibroblasts were divided by isotype control stained fibroblasts to normalize alloantibody levels between experiments.

[7] = test system: anti-mATG IgG; test: Anti-mATG (anti-rabbit) IgG ELISA titers in mice treated with mATG; format: in vivo, C57BL/6 mice; set-up: reduction of anti-mATG antibody responses, area under the effect curves / reduction of anti-mATG IgG titers, area under the effect curves / reduction of anti-mATG IgG titers: concentration or dose not given beside the values
Experimental: as §2

[8] = Circulating mATG levels (mATG-specific IgG ELISA); format: in vivo, mice
Experimental: Mouse serum was determined by ELISA. […] Following blocking with 0.5% BSA (high purity), standard controls and serum samples were diluted as necessary and added in duplicate to the wells of the coated plates and incubated at 36-38° C. for 1 hour with gentle shaking. […] Final concentrations were interpolated off the standard curve. It was predetermined that the measurement of mATG-specific IgG by this method were only modestly affected by titers of anti-mATG IgG that were greater than 218,000.

[9] = methotrexate 1 mg/kg/day, three alemtuzumab treatment cycles

**Q.** Which results are given for `CN(Cc1cnc2nc(N)nc(N)c2n1)c1ccc(C(=O)N[C@@H](CCC(=O)O)C(=O)O)cc1` [methotrexate, Methotrexate]?
**A.** anti-rabbit IgG antibody titers [1]: significantly lower; reduction of anti-alemtuzumab responses ([2]; methotrexate 1 mg/kg, single three-dose cycle, five monthly alemtuzumab 0.5 mg/kg): 88%; mice in which titers were controlled [2, 9]: 7 of the 8; reduction of anti-alemtuzumab titers [2, 9]: 79%; reduction of ADA, area under the effect curves ([2]; methotrexate 2 mg/kg/day, three alemtuzumab treatment cycles): 98%; reduction of anti-alemtuzumab IgG responses ([2]; methotrexate 5 mg/kg, single three-dose cycle, five monthly alemtuzumab 0.5 mg/kg): 99%; anti-alemtuzumab antibody titers ([2]; three daily doses 5 mg/kg/day methotrexate, 24 hours after fifth monthly alemtuzumab dose): reduced; average extended graft survival [3]: 20 days; levels of pro-inflammatory cytokines MCP-1, IL-13, IL-6 and IL-12 ([4]; 24 hours after fifth alemtuzumab dose, methotrexate 5 mg/kg three days at first dose): decreased; TNF-alpha levels ([4]; methotrexate 2 mg/kg, one week after second cycle of alemtuzumab): statistically significant increase; BAFF levels ([4]; serum, 24 hours after 5th dose of alemtuzumab, with vs without methotrexate): no difference; levels of circulating CD4+ and CD8+ T cells ([5]; after fifth monthly mATG treatment, mATG alone or with one cycle of methotrexate): significantly depleted; depletion of CD4+, CD8+, T regulatory T cells and total CD19+ B cells ([5]; methotrexate alone, animals receiving an allogeneic transplant): did not deplete; depletion of CD4+, CD8+, T regulatory T cells and total CD19+ B cells ([5]; normal animals, blood and spleen): does not deplete; percentage of T regulatory cells in spleen and blood ([5]; single cycle of methotrexate, after fifth monthly mATG treatment): enhanced the ability of mATG to increase the percentage of T regulatory cells; absolute number of activated follicular and activated transitional 3 B cells ([5]; spleen, single cycle of methotrexate, around fifth mATG dose): no statistically significant decreases; anti-allograft antibody (alloantibody) levels [6]: significantly reduce; also recorded: significantly lower; reduction of anti-mATG IgG titers ([7]; a single course of methotrexate): > 95%; anti-mATG (anti-rabbit IgG) titer lower than with mATG alone ([7]; mATG and a single cycle of methotrexate vs mATG alone): 100 fold; suppression of anti-mATG IgG responses, area under the effect curves ([7]; methotrexate 5 mg/kg ip six consecutive days, mATG 25 mg/kg x2, 3 days apart, through eight weeks): 95%; reduction of anti-mATG IgG titers, area under the effect curves ([7]; single course of methotrexate, mATG re-challenge after eight weeks rest): 99%; anti-mATG IgG titer ([7]; single cycle of methotrexate around first of five monthly mATG treatments): approximately 50,000; long-lived reduction in ADA ([7]; single cycle of methotrexate within first week of a protein therapy, over many months of dosing (summary statement)): greater than 95%; reduction of anti-mATG IgG titers, area under the effect curves ([7]; single cycle regimen, five monthly mATG (FIG. 4C)): 98%; reduction of anti-mATG IgG titers, area under the effect curves ([7]; three cycle regimen, five monthly mATG (FIG. 4C)): 69%; reduction of anti-mATG IgG titers, area under the effect curves ([7]; three cycle regimen, mATG re-challenge after eight weeks rest): 85%; anti-mATG antibody titers ([7]; three cycles of methotrexate 5 mg/kg with first three monthly mATG treatments): 816,000; reduction of anti-mATG antibody responses, area under the effect curves ([7]; three cycles of methotrexate, five monthly mATG (FIG. 4A)): 79%; circulating mATG levels ([8]; heart transplant model, seven days after first mATG administration, mATG alone or with methotrexate): significantly higher; levels of circulating mATG ([8]; months 3 and 5 of monthly mATG, alone or with single cycle methotrexate 5 mg/kg x3): measurable levels
